What all share (type): functional, Homo sapiens
Design in all cases: dose or concentration left out as unconfirmed

For assay [1], the system named is Colon cancer organoid. Briefly: Optimized Dual-Glo assay to identify co-culture induced drug vulnerabilities using donated chemical probes and chemogenomics kinase set in O20 CRC organoid and F20 CAF mono and co-culture. […] Cell viability is reported both mono and co-culture models.
Assay [2] has as its system Colon cancer organoid. Description: Optimized Dual-Glo assay to identify co-culture induced drug vulnerabilities using donated chemical probes and chemogenomics kinase set in O14 CRC organoid and F14 CAF mono and co-culture. […] Cell viability is reported both mono and co-culture models.
Assay [3] concerns Colon cancer organoid. Briefly: Optimized Dual-Glo assay to identify co-culture induced drug vulnerabilities using donated chemical probes and chemogenomics kinase set in O06 CRC organoid and F06 CAF mono and co-culture. […] Cell viability is reported both mono and co-culture models.
Where [4] appears, read: Culture type Co-Culture, Transduced with Lucferase2-P2A-EGFP lentivirus.
Setting [5] is: Culture type Co-Culture, Transduced with Renilla-dsRed lentivirus.
The mark [6] stands for this setting: Culture type Mono-Culture, Transduced with Lucferase2-P2A-EGFP lentivirus.
Where [7] appears, read: Culture type Mono-Culture, Transduced with Renilla-dsRed lentivirus.

On to `COc1cc(-c2cn([C@H]3CCc4c(F)cccc4N(CC(F)(F)F)C3=O)nn2)ccc1-n1cnc(C)c1`, for which the “Cell Viability” value was found to be 119.382% in the assay with Colon cancer organoid [1] (setting [4]); 109.286% in the assay with Colon cancer organoid [1] (setting [5]); 102.589% with Colon cancer organoid [1] (setting [6]); 90.6954% in the assay with Colon cancer organoid [1] (setting [7]); 75.4426% in the assay with Colon cancer organoid [2] (setting [4]); 112.422% in the assay with Colon cancer organoid [2] (setting [5]). The “Cell Viability” value with Colon cancer organoid [2] (setting [6]) is reported as 84.8132%; with Colon cancer organoid [2] (setting [7]), 97.4006%; in the assay with Colon cancer organoid [3] (setting [4]), 117.399%; with Colon cancer organoid [3] (setting [5]) it was 118.336%; with Colon cancer organoid [3] (setting [6]), 87.9333%; with Colon cancer organoid [3] (setting [7]), 111.054%.
Consider `CCc1cc2cc(NS(=O)(=O)c3ccc(C#N)cc3)ccc2n(CC)c1=O`, for which the “Cell Viability” value in the assay with Colon cancer organoid [1] (setting [4]) is 195.321%; with Colon cancer organoid [1] (setting [5]) it was 99.0217%; in the assay on Colon cancer organoid [1] (setting [6]) it was 112.066%; with Colon cancer organoid [1] (setting [7]), 92.4545%; in the assay on Colon cancer organoid [2] (setting [4]), 89.9895%; in the assay on Colon cancer organoid [2] (setting [5]) it was 94.6782%. For the same compound, the “Cell Viability” value in the assay with Colon cancer organoid [2] (setting [6]) was found to be 98.1459%; in the assay on Colon cancer organoid [2] (setting [7]), 101.615%; in the assay with Colon cancer organoid [3] (setting [4]), 88.2132%; with Colon cancer organoid [3] (setting [5]) it was 102.933%; in the assay on Colon cancer organoid [3] (setting [6]), 126.115%; in the assay on Colon cancer organoid [3] (setting [7]) it was 101.813%.
Turning to `CC(C)(O)[C@H](F)CN1Cc2cc(NC(=O)c3cnn4cccnc34)c(N3CCOCC3)cc2C1=O`, the “Cell Viability” value with Colon cancer organoid [1] (setting [4]) is on record as 123.767%; in the assay on Colon cancer organoid [1] (setting [5]), 88.3121%; in the assay with Colon cancer organoid [1] (setting [6]) it was 99.4921%; with Colon cancer organoid [1] (setting [7]), 83.0265%; with Colon cancer organoid [2] (setting [4]), 134.835%; in the assay with Colon cancer organoid [2] (setting [5]) it was 74.5238%. Further, the “Cell Viability” value in the assay with Colon cancer organoid [2] (setting [6]) turned out to be 106.331%; with Colon cancer organoid [2] (setting [7]), 78.3332%; with Colon cancer organoid [3] (setting [4]) it was 120.796%; in the assay on Colon cancer organoid [3] (setting [5]), 89.8431%; in the assay with Colon cancer organoid [3] (setting [6]), 75.3772%; with Colon cancer organoid [3] (setting [7]), 93.3836%.
As to `CN(C)C(=O)c1ccc(-c2cc(C(=O)N[C@@H]3CCc4ccccc43)no2)cc1O`, the “Cell Viability” value with Colon cancer organoid [1] (setting [4]) worked out at 98.4389%; in the assay with Colon cancer organoid [1] (setting [5]), 104.475%; with Colon cancer organoid [1] (setting [6]) it was 121.813%; with Colon cancer organoid [1] (setting [7]), 120.44%; in the assay with Colon cancer organoid [2] (setting [4]) it was 73.2649%; with Colon cancer organoid [2] (setting [5]), 147.75%. Further, the “Cell Viability” value in the assay on Colon cancer organoid [2] (setting [6]) was determined as 80.1245%; in the assay with Colon cancer organoid [2] (setting [7]) it was 134.73%; in the assay on Colon cancer organoid [3] (setting [4]), 113.879%; with Colon cancer organoid [3] (setting [5]), 93.2478%; in the assay with Colon cancer organoid [3] (setting [6]), 92.6679%; in the assay with Colon cancer organoid [3] (setting [7]) it was 134.315%.
Regarding `COc1cc(-c2cn([C@H]3CCc4ccccc4N(CC(F)(F)F)C3=O)nn2)ccc1-n1ccc(C)n1`, the “Cell Viability” value in the assay on Colon cancer organoid [1] (setting [4]) came out at 70.0794%; with Colon cancer organoid [1] (setting [5]) it was 119.033%; with Colon cancer organoid [1] (setting [6]), 80.8006%; in the assay on Colon cancer organoid [1] (setting [7]) it was 95.6811%; in the assay with Colon cancer organoid [2] (setting [4]) it was 109.774%; in the assay with Colon cancer organoid [2] (setting [5]) it was 96.1466%. The “Cell Viability” value is 102.384% in the assay on Colon cancer organoid [2] (setting [6]); 99.9901% in the assay on Colon cancer organoid [2] (setting [7]); 93.4988% in the assay on Colon cancer organoid [3] (setting [4]); 122.107% in the assay on Colon cancer organoid [3] (setting [5]); 86.5665% with Colon cancer organoid [3] (setting [6]); 106.482% with Colon cancer organoid [3] (setting [7]).
Consider `CN(C)C(=O)c1ccc(-c2cc(C(=O)N(C)C3CCCC3)no2)cc1O`, for which the “Cell Viability” value in the assay with Colon cancer organoid [1] (setting [4]) was 121.535%; with Colon cancer organoid [1] (setting [5]), 110.433%; in the assay with Colon cancer organoid [1] (setting [6]), 107.717%; in the assay on Colon cancer organoid [1] (setting [7]), 123.756%; with Colon cancer organoid [2] (setting [4]) it was 78.738%; with Colon cancer organoid [2] (setting [5]) it was 108.435%. For the same compound, the “Cell Viability” value in the assay with Colon cancer organoid [2] (setting [6]) is 99.3256%; with Colon cancer organoid [2] (setting [7]), 115.997%; in the assay with Colon cancer organoid [3] (setting [4]) it was 126.057%; with Colon cancer organoid [3] (setting [5]), 129.278%; in the assay with Colon cancer organoid [3] (setting [6]), 114.98%; in the assay with Colon cancer organoid [3] (setting [7]), 129.58%.
As for `c1ccc2oc(-c3csc(C4CCN(Cc5nc6ncccc6[nH]5)CC4)n3)cc2c1`, the “Cell Viability” value stood at 55.8408% with Colon cancer organoid [1] (setting [4]); 105.216% in the assay with Colon cancer organoid [1] (setting [5]); 98.8646% with Colon cancer organoid [1] (setting [6]); 99.5308% in the assay with Colon cancer organoid [1] (setting [7]); 119.834% in the assay on Colon cancer organoid [2] (setting [4]); 111.13% with Colon cancer organoid [2] (setting [5]). The “Cell Viability” value in the assay with Colon cancer organoid [2] (setting [6]) worked out at 91.6979%; in the assay with Colon cancer organoid [2] (setting [7]) it was 94.4275%; in the assay with Colon cancer organoid [3] (setting [4]), 118.221%; in the assay on Colon cancer organoid [3] (setting [5]) it was 124.83%; in the assay on Colon cancer organoid [3] (setting [6]) it was 91.0093%; in the assay on Colon cancer organoid [3] (setting [7]) it was 102.554%.
Consider `CN(C(=O)c1cnn2cccnc12)c1cc2c(cc1N1CCOCC1)C(=O)N(C[C@@H](F)C(C)(C)O)C2`, for which the “Cell Viability” value turned out to be 85.0124% in the assay on Colon cancer organoid [1] (setting [4]); 89.8275% in the assay on Colon cancer organoid [1] (setting [5]); 94.3235% with Colon cancer organoid [1] (setting [6]); 98.269% in the assay on Colon cancer organoid [1] (setting [7]); 89.5893% in the assay on Colon cancer organoid [2] (setting [4]); 113.489% in the assay on Colon cancer organoid [2] (setting [5]). Moreover, the “Cell Viability” value is given as 112.103% in the assay on Colon cancer organoid [2] (setting [6]); 103.195% in the assay with Colon cancer organoid [2] (setting [7]); 93.6773% with Colon cancer organoid [3] (setting [4]); 65.3185% in the assay on Colon cancer organoid [3] (setting [5]); 72.0703% in the assay on Colon cancer organoid [3] (setting [6]); 97.8487% with Colon cancer organoid [3] (setting [7]).
Consider `COc1cc(Nc2nc(C)cc(-c3cnn4nc(OC)ccc34)n2)cc(C(F)(F)F)c1`, for which the “Cell Viability” value came to 136.021% in the assay on Colon cancer organoid [1] (setting [4]); 99.6244% with Colon cancer organoid [1] (setting [5]); 133.384% in the assay with Colon cancer organoid [1] (setting [6]); 109.532% with Colon cancer organoid [1] (setting [7]); 103.629% with Colon cancer organoid [2] (setting [4]); 105.362% in the assay with Colon cancer organoid [2] (setting [5]). For the same compound, the “Cell Viability” value in the assay on Colon cancer organoid [2] (setting [6]) came to 103.076%; in the assay with Colon cancer organoid [2] (setting [7]), 99.2277%; with Colon cancer organoid [3] (setting [4]), 131.373%; with Colon cancer organoid [3] (setting [5]), 124.179%; in the assay with Colon cancer organoid [3] (setting [6]), 105.332%; with Colon cancer organoid [3] (setting [7]), 118.145%.
Regarding `CCOc1ccc(S(=O)(=O)Nc2ccc(Cl)cc2C#Cc2cnc(C(=O)[O-])cc2OC)c2ncccc12.[K+]`, the “Cell Viability” value worked out at 109.87% in the assay on Colon cancer organoid [1] (setting [4]); 117.362% in the assay on Colon cancer organoid [1] (setting [5]); 101.299% with Colon cancer organoid [1] (setting [6]); 92.0089% with Colon cancer organoid [1] (setting [7]); 128.517% in the assay with Colon cancer organoid [2] (setting [4]); 94.7736% in the assay on Colon cancer organoid [2] (setting [5]). Further, the “Cell Viability” value is 96.9622% in the assay on Colon cancer organoid [2] (setting [6]); 95.2003% with Colon cancer organoid [2] (setting [7]); 117.764% in the assay on Colon cancer organoid [3] (setting [4]); 113.31% in the assay on Colon cancer organoid [3] (setting [5]); 103.254% in the assay on Colon cancer organoid [3] (setting [6]); 83.0425% in the assay on Colon cancer organoid [3] (setting [7]).

These data come from ChEMBL document CHEMBL5674860, “Optimized Dual-Glo Assay to identify co-culture-induced drug vulnerabilities in 3D CRC models” (2024).
